Experimental findings from patent US12347214B2, “Microspore culture predictive model generation and use” (PIONEER HI-BRED INTERNATIONAL, INC., priority 2019, dated 2025) are described below.

For data set [1], the system named is AtWOX2pro::CENH3-GFP activity in transgenic canola microspores. The data set is described as follows: AtWOX2pro::CENH3-GFP reporter activity in canola microspore culture with inducing agent. The format is cell-based. The conditions noted are these: with trichostatin A treatment. The source says: The methods described above for corn may also be adapted for use with other crops and for use with a reporter gene. As proof of concept, Canola microspore cells were obtained from a plant line that had been transformed with a green fluorescent protein reporter gene fused to a plant developmental gene with an effect on plant histones. While transformation was used in this case, other known gene insertion techniques such as CRISPR may be used to insert the reporter gene into the plant genome. A stable homozygous Canola line with the AtWOX2pro::CENH3-GFP fusion protein was developed. This protein attaches to plant histones, associates with plant chromocenters and can be used to determine chromosome number. GFP served as the reporter gene, although any reporter gene could also be used. This stable transgenic line was used to generate a microspore for in vitro tissue culture. Trichostatin A, a histone deacetylase inhibitor known to alter the embryogenic potential of dicot microspores was used as the inducing agent.

Data set [2] can be described thus: Dye stability in cell culture conditions. Particulars: supplementation at beginning of culture sufficient until end point of analysis. The format is physicochemical. The source says: (§1) In the embodiment described herein, the fluorescent dye BODIPY 564/70, which stains both cell membranes and subcellular compartments, such as vacuoles, was used. […] BODIPY 564/70 is non-toxic to plant cells, so the plant cells continued to develop. BODIPY 564/70 is also very stable in cell culture conditions, so supplementation of the dye at the beginning of the culture was sufficient to generate informative images until the end point of the analysis. Other dyes, combinations of dyes, such as CFDA and FM4-64, and combinations of dyes with fluorescent protein markers, may also be used with the present method in order to generate different images. Options for fluorescent imaging include imaging cells that comprise fluorescent proteins, such as green (GFP), blue (EBFP, EBFP2, Azurite, mKalama1), cyan (ECFP, Cerulean, CyPet, mTurquoise2), red (dsRed, mCherry, tomato, etc.), far-red (mIFP, iBlueberry etc.) and yellow (YFP, Citrine, Venus, YPet). Plant cell stain techniques are known in the art, for example, see Ruzin, S. E. Plant Microtechnique and Microscopy. New York: Oxford University Press. ISBN 0195089561 (1999).

The test system of a further data set is plant cells. The data set is described as follows: Staining of plant cells with fluorescent dye, continued cell development. The format is cell-based. The conditions noted are these: dye added at the beginning of the culture; plant cells continued to develop.
Excerpt: as §1

As for `CC(/C=C/C(=O)NO)=C\[C@@H](C)C(=O)c1ccc(N(C)C)cc1` [trichostatin A, Trichostatin A], the “detection of AtWOX2pro::CENH3-GFP activity” value in data set [1] (first timepoint) is reported as “no or very low detection”; in data set [1] (second time point), “increased detection”.
For the compound BODIPY 564/70, the “stability in cell culture conditions” value in data set [2] is listed as “very stable”. In the data set with plant cells, the “toxicity to plant cells” value was “non-toxic”.
